Two compounds from BindingDB's records for doi:10.1016/0014-2999(88)90158-6 (Pharmakologisches Institut, 1988) can be followed below.

The structures appear in SMILES notation. Bounds are passed on as bounds.

In one assay the target is Adenosine receptor A2a (Homo sapiens, UniProt P29274).
The next assay concerns the target T1, Adenosine receptor A1 (Rattus norvegicus, UniProt P25099).
T1 sequence (P25099 whole entry): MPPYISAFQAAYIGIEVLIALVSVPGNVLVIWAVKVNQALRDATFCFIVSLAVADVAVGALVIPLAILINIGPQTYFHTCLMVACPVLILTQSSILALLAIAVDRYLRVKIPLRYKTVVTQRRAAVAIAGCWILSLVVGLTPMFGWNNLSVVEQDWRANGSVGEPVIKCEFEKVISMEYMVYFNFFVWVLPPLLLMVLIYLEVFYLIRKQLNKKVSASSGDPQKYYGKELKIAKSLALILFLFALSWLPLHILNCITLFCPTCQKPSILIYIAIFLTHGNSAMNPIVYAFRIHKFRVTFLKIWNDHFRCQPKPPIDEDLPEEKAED

Sequence of Adenosine receptor A2a (P29274 whole entry): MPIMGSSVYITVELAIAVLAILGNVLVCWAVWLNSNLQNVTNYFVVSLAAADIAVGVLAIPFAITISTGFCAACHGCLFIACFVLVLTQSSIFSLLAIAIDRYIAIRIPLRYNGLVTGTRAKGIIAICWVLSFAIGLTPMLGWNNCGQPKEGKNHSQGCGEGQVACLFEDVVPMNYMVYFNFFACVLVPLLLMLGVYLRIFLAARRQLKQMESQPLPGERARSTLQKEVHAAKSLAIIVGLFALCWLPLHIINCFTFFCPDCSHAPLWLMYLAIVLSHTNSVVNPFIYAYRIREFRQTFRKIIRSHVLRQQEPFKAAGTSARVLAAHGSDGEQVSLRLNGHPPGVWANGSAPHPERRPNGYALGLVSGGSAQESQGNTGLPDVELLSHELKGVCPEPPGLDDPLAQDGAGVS

On to `OC[C@H]1CC[C@H](n2cnc3c(NC4CCCCC4)ncnc32)O1` [alpha-ddCHA], for which, at Adenosine receptor A2a, the Ki is > 10 µM.
Regarding `OC[C@@H]1CC[C@H](n2cnc3c(NC4CCCCC4)ncnc32)O1` [ddCHA], the Ki on Adenosine receptor A2a is > 10 µM; on Adenosine receptor A1 it was 4.8 µM.

In general, Ki refers to the dissociation constant of the complex between target and ligand, obtained from inhibition or displacement. A lower Ki goes with tighter binding.
